Patent publication US20260274814A1, “THIENYL COMPOUNDS FOR THE TREATMENT OF A CENTRAL NERVOUS SYSTEM DISEASE OR DISORDER” (Coreterra Therapeutics, Inc., priority 2023, published 2026)
Structures can show the parent of a compound that is named as a salt.

Tested on: mice
Experiment: Neuropharmacological Assay (SmartCube): automated behavioral signature of compound-treated mice compared with a database of reference drug classes
Assay type: in vivo
Settings: for minimal effective dose: Mus musculus, ip, read-out: MED (minimal effective dose); for minimal effective dose / MED (minimal effective dose): dose having 45% or more total activity in SmartCube, i.p., if only one dose was tested, that dose is shown; for AD / AG / AN / AX / CE / HL / MS / PS / SH / UK / AP: probability that activity matches this class of agents, 3.0 mg/kg i.p., 15 min before test
Description: Neurosci. 2011 Sep. 9; 5: 103 (doi: 10.3389/fnins.2011.00103) (“Roberds”). As reported in Roberds, because psychiatric diseases generally result from disorders of cell-cell communication or circuitry, intact systems are useful in detecting improvement in disease-relevant endpoints. These endpoints are typically behavioral in nature, often requiring human observation and interpretation. To facilitate testing of multiple compounds for behavioral effects relevant to psychiatric disease, PsychoGenics, Inc. (Tarrytown, NY, “PGI”) developed SmartCube™ an automated system in which behaviors of compound-treated mice are captured by digital video and analyzed with computer algorithms. (D. Brunner et al. Drug Discov. Today 2002, 7:S107-S112). PGI Analytical Systems uses data from SmartCube™ to compare the behavioral signature of a test compound to a database of behavioral signatures obtained using a large set of diverse reference compounds. (The composition of the database as well as validation of the method is further described in Roberds). In this way, the neuropharmacological effects of a test compound can be predicted by similarity to major classes of compounds, such as antipsychotics, anxiolytics and antidepressants.
The SmartCube™ system produces an activity signature indicating the probability that the activity of the test compound at the administered dose matches a given class of neuropharmacological agents. (See, e.g., Roberds, FIGS. 2 and 3). The test compound is simultaneously compared against multiple classes of agents; thus, a separate probability is generated for each behavioral effect measured (e.g., anxiolytic activity, analgesic activity, etc.). In table 2 below, these probabilities are reported for each behavioral effect measured as described in Table 1 below.
Provided compounds were dissolved in a mixture of Pharmasolve™ (N-methyl-2-pyrrolidone), polyethylene glycol and propylene glycol, and were injected i.p. 15 min. before the behavioral test. For each compound, injections were administered at 3 different doses. For each behavioral effect measured, results for the 3.0 mg/kg dose are presented. The potency of many of the compounds in the table was also determined in the SmartCube™ system. Test compounds were routinely examined at dose levels of 0.3, 1, 3 and 10 mg per kg (mpk), although the dose range was increased or decreased, if necessary, to obtain a full dose response curve. A compound's minimal effective dose (MED) is a measure of the compound's potency. The MED was defined as the dose (in mpk) having 45% or more total activity in SmartCube. If only one dose was tested, that dose is shown in the MED column of Table 2 even though the dose is not known to be the MED.

CCc1scc2c1CC(NC)CC2 (single isomer, unassigned) [Compound 115, 3-ethyl-N-methyl-4,5,6,7-tetrahydro-2-benzothiophen-5-amine hydrochloride] was tested, and the minimal effective dose was 3 mg/kg, the AD was “ND (^ <4%)” and the AG was “ND (^ <4%)”. For the same compound, the AN was “ND (^ <4%)”, the AX was “ND (^ <4%)” and the CE was “ND (^ <4%)”. The HL was “ND (^ <4%)”, the MS was “ND (^ <4%)” and the PS was “ND (^ <4%)”. For the same compound, the SH was “ND (^ <4%)”, the UK was “ND (^ <4%)” and the AP (hydrochloride, 3 mg/kg) was “++++ (≥74%)”.
With CCc1scc2c1CC(NC)CC2 (single isomer, unassigned) [Compound 116, 3-ethyl-N-methyl-4,5,6,7-tetrahydro-2-benzothiophen-5-amine hydrochloride] the “MED (minimal effective dose)” value (hydrochloride) was <3 mpk, the AD was “ND (^ <4%)” and the AG was “ND (^ <4%)”. For the same compound, the AN was “ND (^ <4%)”, the AX was “ND (^ <4%)” and the CE was “ND (^ <4%)”. For the same compound, the HL was “ND (^ <4%)”, the MS was “ND (^ <4%)” and the PS was “ND (^ <4%)”. The SH was “ND (^ <4%)”, the UK was “ND (^ <4%)” and the AP (hydrochloride, 3 mg/kg) was “ND (^ <4%)”.
In the case of CCc1sc(CC)c2c1CCC(NC)C2 (single isomer, unassigned) [Compound 117, 1,3-diethyl-N-methyl-4,5,6,7-tetrahydro-2-benzothiophen-5-amine hydrochloride], the minimal effective dose is reported as > 3 mg/kg, the AD is reported as “ND (^ <4%)” and the AG is reported as “ND (^ <4%)”. The AN was “ND (^ <4%)”, the AP was “ND (^ <4%)” and the AX was “ND (^ <4%)”. The CE was “ND (^ <4%)”, the HL was “ND (^ <4%)” and the MS was “ND (^ <4%)”. The PS was “ND (^ <4%)”, the SH was “ND (^ <4%)” and the UK (hydrochloride, 3 mg/kg) was “ND (^ <4%)”.
For CCc1sc(CC)c2c1CCC(NC)C2 (single isomer, unassigned) [Compound 118, 1,3-diethyl-N-methyl-4,5,6,7-tetrahydro-2-benzothiophen-5-amine hydrochloride], the “MED (minimal effective dose)” value was >3 mpk, the AD was “ND (^ <4%)” and the AG was “ND (^ <4%)”. The AN was “ND (^ <4%)”, the AP was “ND (^ <4%)” and the AX was “ND (^ <4%)”. The CE was “ND (^ <4%)”, the HL was “ND (^ <4%)” and the MS was “ND (^ <4%)”. For the same compound, the PS was “ND (^ <4%)”, the SH was “ND (^ <4%)” and the UK (hydrochloride, 3 mg/kg) was “+ (≥4%)”.
In the case of CN(C)C1(C)CCc2ccsc2C1 (single isomer, unassigned) [Compound 119, N, N, 6-trimethyl-5,7-dihydro-4H-benzothiophen-6-amine hydrochloride], the minimal effective dose is reported as 3 mg/kg, the AD is reported as “ND (^ <4%)” and the AG is reported as “ND (^ <4%)”. For the same compound, the AN was “ND (^ <4%)”, the AP was “ND (^ <4%)” and the AX was “++++ (≥74%)”. For the same compound, the CE was “ND (^ <4%)”, the HL was “ND (^ <4%)” and the MS was “ND (^ <4%)”. The PS was “ND (^ <4%)”, the SH was “ND (^ <4%)” and the UK was “ND (^ <4%)”.
For CN(C)C1CCc2csc(C(F)(F)F)c2C1 (single isomer, unassigned) [Compound 120, N,N-dimethyl-3-(trifluoromethyl)-4,5,6,7-tetrahydro-2-benzothiophen-5-amine hydrochloride], the minimal effective dose was 3 mg/kg, the AD was “ND (^ <4%)” and the AG was “ND (^ <4%)”. The AN was “ND (^ <4%)”, the AP was “++++ (≥74%)” and the AX was “ND (^ <4%)”. For the same compound, the CE was “ND (^ <4%)”, the HL was “ND (^ <4%)” and the MS was “ND (^ <4%)”. For the same compound, the PS was “ND (^ <4%)”, the SH was “ND (^ <4%)” and the UK was “ND (^ <4%)”.
For CN(C)C1(C)CCc2cscc2C1 (single isomer, unassigned) [Compound 121, N,N, 5-trimethyl-6,7-dihydro-4H-2-benzothiophen-5-amine hydrochloride], the minimal effective dose was 3 mg/kg, the AD was “ND (^ <4%)” and the AG was “ND (^ <4%)”. For the same compound, the AN was “ND (^ <4%)”, the AP was “+ (≥4%)” and the AX was “+ (≥4%)”. The CE was “ND (^ <4%)”, the HL was “ND (^ <4%)” and the MS was “ND (^ <4%)”. The PS was “ND (^ <4%)”, the SH was “ND (^ <4%)” and the UK was “+++ (≥49%)”.
For CC1(N)CCc2cscc2C1.Cl (single isomer, unassigned) [Compound 122, 5-methyl-6,7-dihydro-4H-2-benzothiophen-5-amine hydrochloride], the minimal effective dose was 1 mg/kg, the AG was “ND (^ <4%)” and the AN was “ND (^ <4%)”. The AP was “ND (^ <4%)”, the CE was “ND (^ <4%)” and the MS was “ND (^ <4%)”. The SH was “ND (^ <4%)”, the UK was “ND (^ <4%)” and the AD (hydrochloride, 3 mg/kg) was “+++ (≥49%)”. For the same compound, the AX (hydrochloride, 3 mg/kg) was “+ (≥4%)”, the HL (hydrochloride, 3 mg/kg) was “ND (^ <4%)” and the PS (hydrochloride, 3 mg/kg) was “ND (^ <4%)”.
In the case of CC1(N)CCc2cscc2C1.Cl (single isomer, unassigned) [Compound 123, 5-methyl-6,7-dihydro-4H-2-benzothiophen-5-amine hydrochloride], the “MED (minimal effective dose)” value is reported as 1 mpk, the AG is reported as “ND (^ <4%)” and the AN is reported as “ND (^ <4%)”. For the same compound, the AP was “ND (^ <4%)”, the CE was “ND (^ <4%)” and the MS was “ND (^ <4%)”. The SH was “ND (^ <4%)”, the UK was “ND (^ <4%)” and the AD (hydrochloride, 3 mg/kg) was “+ (≥4%)”. The AX (hydrochloride, 3 mg/kg) was “ND (^ <4%)”, the HL (hydrochloride, 3 mg/kg) was “++ (≥24%)” and the PS (hydrochloride, 3 mg/kg) was “++ (≥24%)”.
Cl.c1scc2c1CCC(NC1CC1)C2 (single isomer, unassigned) [Compound 124, N-cyclopropyl-4,5,6,7-tetrahydro-2-benzothiophen-5-amine hydrochloride] was tested, and the “MED (minimal effective dose)” value (hydrochloride) was 3 mpk, the AG was “ND (^ <4%)” and the AN was “ND (^ <4%)”. For the same compound, the AP was “ND (^ <4%)”, the AX was “ND (^ <4%)” and the CE was “ND (^ <4%)”. For the same compound, the HL was “ND (^ <4%)”, the MS was “ND (^ <4%)” and the PS was “ND (^ <4%)”. The SH was “ND (^ <4%)”, the AD (hydrochloride, 3 mg/kg) was “ND (^ <4%)” and the UK (hydrochloride, 3 mg/kg) was “+++ (≥49%)”.
Cl.c1scc2c1CCC(NC1CC1)C2 (single isomer, unassigned) [Compound 125, N-cyclopropyl-4,5,6,7-tetrahydro-2-benzothiophen-5-amine hydrochloride] was tested, and the “MED (minimal effective dose)” value (hydrochloride) was 0.3 mpk, the AG was “ND (^ <4%)” and the AN was “ND (^ <4%)”. The AP was “ND (^ <4%)”, the AX was “ND (^ <4%)” and the CE was “ND (^ <4%)”. The HL was “ND (^ <4%)”, the MS was “ND (^ <4%)” and the PS was “ND (^ <4%)”. For the same compound, the SH was “ND (^ <4%)”, the AD (hydrochloride, 3 mg/kg) was “+++ (≥49%)” and the UK (hydrochloride, 3 mg/kg) was “ND (^ <4%)”.
For Cl.FC1(F)CC(NC2CCc3cscc3C2)C1 (single isomer, unassigned) [Compound 126, N-(3,3-difluorocyclobutyl)-4,5,6,7-tetrahydro-2-benzothiophen-5-amine hydrochloride], the minimal effective dose was > 30 mg/kg, the AD was “ND (^ <4%)” and the AG was “ND (^ <4%)”. For the same compound, the AN was “ND (^ <4%)”, the AP was “ND (^ <4%)” and the AX was “ND (^ <4%)”. For the same compound, the CE was “ND (^ <4%)”, the HL was “ND (^ <4%)” and the MS was “ND (^ <4%)”. For the same compound, the PS was “ND (^ <4%)”, the SH was “ND (^ <4%)” and the UK was “ND (^ <4%)”.
